Source: paper doi:10.1101/2020.09.06.284752v1 (biorxiv, 2020)

What was measured:
recombinant human PFKM = target: T1, recombinant human PFKM (Homo sapiens, UniProt P08237); assay: PFKM enzymatic activity inhibition; assay type: biochemical
T1 sequence (P08237 2-780): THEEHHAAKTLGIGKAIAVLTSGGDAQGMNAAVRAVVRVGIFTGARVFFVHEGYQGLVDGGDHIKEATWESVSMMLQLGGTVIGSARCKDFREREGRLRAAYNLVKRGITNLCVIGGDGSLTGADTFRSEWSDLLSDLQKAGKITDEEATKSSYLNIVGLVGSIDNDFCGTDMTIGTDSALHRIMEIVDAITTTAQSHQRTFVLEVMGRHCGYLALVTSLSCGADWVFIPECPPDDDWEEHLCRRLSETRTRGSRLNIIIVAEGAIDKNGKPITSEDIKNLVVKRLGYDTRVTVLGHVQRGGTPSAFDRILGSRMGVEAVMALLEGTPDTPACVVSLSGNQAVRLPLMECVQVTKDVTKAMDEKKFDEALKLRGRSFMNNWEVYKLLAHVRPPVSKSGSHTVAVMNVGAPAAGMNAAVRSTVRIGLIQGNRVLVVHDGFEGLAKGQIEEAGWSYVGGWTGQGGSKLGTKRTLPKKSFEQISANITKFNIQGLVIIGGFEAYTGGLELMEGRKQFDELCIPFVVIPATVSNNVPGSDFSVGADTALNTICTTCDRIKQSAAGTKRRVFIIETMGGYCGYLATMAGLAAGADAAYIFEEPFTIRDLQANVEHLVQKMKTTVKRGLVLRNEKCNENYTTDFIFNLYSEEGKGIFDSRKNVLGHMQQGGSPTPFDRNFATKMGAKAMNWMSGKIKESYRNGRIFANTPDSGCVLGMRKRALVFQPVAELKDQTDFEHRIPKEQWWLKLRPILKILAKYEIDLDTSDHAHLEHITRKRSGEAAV

recombinant PFKL = target: T2, recombinant PFKL (Homo sapiens, UniProt P17858); assay: PFKL enzymatic activity inhibition; assay type: biochemical
T2 sequence (P17858 2-780): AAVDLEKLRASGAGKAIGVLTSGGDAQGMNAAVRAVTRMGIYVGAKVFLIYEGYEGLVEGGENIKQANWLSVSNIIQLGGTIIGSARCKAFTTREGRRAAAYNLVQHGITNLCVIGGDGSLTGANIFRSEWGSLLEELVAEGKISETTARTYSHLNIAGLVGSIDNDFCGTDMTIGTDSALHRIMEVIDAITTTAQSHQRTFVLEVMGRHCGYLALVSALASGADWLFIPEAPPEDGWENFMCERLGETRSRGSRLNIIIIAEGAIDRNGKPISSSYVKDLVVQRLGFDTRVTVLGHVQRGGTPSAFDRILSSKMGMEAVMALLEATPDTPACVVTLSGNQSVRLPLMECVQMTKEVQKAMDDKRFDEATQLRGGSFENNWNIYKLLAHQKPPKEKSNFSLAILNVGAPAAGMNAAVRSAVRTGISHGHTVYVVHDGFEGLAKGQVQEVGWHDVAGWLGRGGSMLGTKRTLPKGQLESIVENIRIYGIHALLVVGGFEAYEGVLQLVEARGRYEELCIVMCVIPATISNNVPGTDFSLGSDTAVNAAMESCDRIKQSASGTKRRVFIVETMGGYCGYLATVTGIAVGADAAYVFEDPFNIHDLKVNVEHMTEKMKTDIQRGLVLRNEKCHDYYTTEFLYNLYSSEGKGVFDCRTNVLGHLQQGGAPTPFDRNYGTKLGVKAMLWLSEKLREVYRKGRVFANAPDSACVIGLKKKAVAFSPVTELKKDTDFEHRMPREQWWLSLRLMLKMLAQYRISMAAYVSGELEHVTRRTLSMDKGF

SMILES	IC50 (recombinant human PFKM) [nM]	IC50 (recombinant PFKL) [nM]
C#CCNC(=O)[C@]1(C)CC[C@]2(C)CC[C@]3(C)C4=CC=C5C(=CC(=O)C(O)=C5C)[C@]4(C)CC[C@@]3(C)[C@@H]2C1 [1-85]	507	–
O=C(c1cccs1)c1no[n+]([O-])c1C(=O)c1cccs1 [3-79]	292 ± 20.8	–
CC1=C(O)C(=O)C=C2C1=CC=C1[C@@]2(C)CC[C@@]2(C)[C@@H]3C[C@](C)(C(=O)O)CC[C@]3(C)CC[C@]12C [celastrol]	349	916 ± 35.7
